Results on seven molecules are retold here after patent US11142554B2 (MASSACHUSETTS INSTITUTE OF TECHNOLOGY, priority 2015, dated 2021).

Positions of bridges follow the written chain, without caps; N, C: chain ends. Non-standard residues stand in square brackets, D forms with d. Residues, ends and D or L forms follow the SMILES beside them. S5 = C=CCCC[C@](C)(N)C(=O)O; Nle = CCCC[C@H](N)C(=O)O A value given as a limit tells only on which side of the number the result lay.

For data set [1], the target named is T1, Mcl-1 (Homo sapiens, UniProt Q07820). Put plainly: Competition of unlabeled peptides with a fluorescently labeled Bim variant. The settings on record: unlabeled peptide.
Target sequence in this assay (Q07820 whole entry): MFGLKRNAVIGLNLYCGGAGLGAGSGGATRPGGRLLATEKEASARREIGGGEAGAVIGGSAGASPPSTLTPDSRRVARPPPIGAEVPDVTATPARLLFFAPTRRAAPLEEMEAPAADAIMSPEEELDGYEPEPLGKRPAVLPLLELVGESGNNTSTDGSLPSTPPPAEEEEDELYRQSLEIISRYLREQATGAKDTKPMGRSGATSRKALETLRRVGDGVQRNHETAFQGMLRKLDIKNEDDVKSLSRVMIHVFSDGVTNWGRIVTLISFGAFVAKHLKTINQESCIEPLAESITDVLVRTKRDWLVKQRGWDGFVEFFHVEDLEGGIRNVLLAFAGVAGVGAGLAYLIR
Data set [2] concerns the target T2, Bcl-w (Homo sapiens, UniProt Q92843).
T2 sequence (Q92843 1-193): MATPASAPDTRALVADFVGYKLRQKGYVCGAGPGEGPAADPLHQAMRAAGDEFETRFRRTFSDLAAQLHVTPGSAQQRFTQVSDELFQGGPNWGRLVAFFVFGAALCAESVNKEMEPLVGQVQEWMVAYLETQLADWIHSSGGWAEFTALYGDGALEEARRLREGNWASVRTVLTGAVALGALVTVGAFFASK
The settings on record: reported in the literature; cited from earlier work.

Another data set relates to Bcl-2/Myc 2924 cells. How it is done: (§1) A whole-cell BH3 profiling assay was used to test the specificity of our Mcl-1-binding peptides in several cell lines with differing dependencies on Bcl-2, Mcl-1, Bcl-xL, or Bfl-1. In this assay, permeabilized cells were treated with increasing doses of BH3 peptides, and mitochondrial outer membrane permeabilization (MOMP) was monitored using the dye JC-1 (see below). Mcl-1/Myc 2640 is an engineered murine leukemia cell line overexpressing murine Mcl-1 and Myc, and Bcl-2/Myc 2924 is a similarly engineered cell line overexpressing human Bcl-2.
(§2) Assay plates were produced by serial dilution of each peptide from 200 μM to 0.2 nM using 10-fold dilutions in DTEB (Derived from Trehalose Experimental Buffer: 135 mM trehalose, 50 mM KCl, 20 μM EDTA, 20 μM EGTA, 0.1% BSA, 5 mM succinate, 10 mM HEPES-KOH pH 7.5) containing 0.005% w/v digitonin, 10 mM 2-mercaptoethanol, 2 μM JC-1, and 20 mg mL-1 oligomycin. Triplicate wells for each peptide were made for each cell line by adding 15 μL of the peptide dilutions to each well of a black, untreated 384-well plate. Control wells containing no peptide or 20 μM FCCP (carbonyl cyanide-4(trifluoromethoxy) phenylhydrazone, a chemical uncoupler of oxidative phosphorylation) were included for zero and complete depolarization, respectively. Multiple plates were produced from the same stock and frozen at −80 ° C. for later use. Frozen plates were brought to RT prior to use, cells were suspended in DTEB at a density of 1.34×10^6 cells/mL, and 15 μL of cell suspension was added to each well of the dilution series to yield wells ranging from 0.1 nM to 100 μM peptide and 20000 cells/well. Fluorescence of JC-1 aggregates was measured at 590 nm with 545 nm excitation on a Tecan Safire2 at 5 min intervals for 3 h. The area under each signal-vs-time curve was calculated and normalized to the untreated and FCCP values to produce the percent depolarization. Curves were plotted as the log [peptide] vs percent depolarization, with sigmoidal dose—response curves fitted using Graphpad PRISM 6.

Data set [3] deals with Human multiple myeloma cell lines dependent upon Mcl-1. How it is done: as §1, §2
In a further data set the test system is MDA-MB-231 cells. How it is done: as §1, §2
The subject of a further data set is Mcl-1/Myc 2640 cells. How it is done:
as §1, §2

Data set [4] deals with T3, Bcl-2 (Homo sapiens, UniProt P10415). The settings on record: reported in the literature; cited from earlier work.
Target sequence in this assay (P10415 whole entry, species assumed): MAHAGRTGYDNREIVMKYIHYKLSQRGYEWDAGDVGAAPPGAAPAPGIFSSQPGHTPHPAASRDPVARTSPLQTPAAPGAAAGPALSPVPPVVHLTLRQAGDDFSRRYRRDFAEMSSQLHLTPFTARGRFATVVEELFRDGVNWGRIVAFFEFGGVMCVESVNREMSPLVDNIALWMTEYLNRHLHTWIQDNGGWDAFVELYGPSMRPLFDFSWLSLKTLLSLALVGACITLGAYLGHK
The subject of data set [5] is Bfl-1. The settings on record: reported in the literature; cited from earlier work.
In data set [6] the target is T4, Bcl-xL (Homo sapiens, UniProt Q07817). The note with it: reported in the literature; cited from earlier work.
Target sequence in this assay (Q07817 whole entry, species assumed): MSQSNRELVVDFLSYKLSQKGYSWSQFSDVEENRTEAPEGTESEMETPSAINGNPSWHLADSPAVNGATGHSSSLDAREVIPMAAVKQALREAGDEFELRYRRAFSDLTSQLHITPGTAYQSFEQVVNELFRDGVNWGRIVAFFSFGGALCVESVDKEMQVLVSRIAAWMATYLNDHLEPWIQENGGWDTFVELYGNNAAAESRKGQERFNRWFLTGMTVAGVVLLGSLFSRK
Data set [7] addresses T1, Mcl-1. Put plainly: Fluorescence anisotropy direct binding of N-terminal fluorescein peptides. The settings on record: 23-residue peptide with N-terminal fluorescein. (Polarisation of emitted light reports the rotation of a fluorescent probe.)
Target sequence in this assay (Q07820 whole entry): as the sequence (Q07820 whole entry) above
Data set [8] has as its target T1, Mcl-1. Put plainly: IC50 (nM). The source says:
Table printed on a drawing sheet, FIG. 8
Head of the field: IC50 (nM)
The patent's description of the figure: FIG. 8|Results of studies assessing cell permeability of various internally cross-linked peptides. Stapled peptides based on MB2 lead peptide are shown. […] MB2 (SEQ ID NO:23); B1 SAHBa (SEQ ID NO:24); B1 SAHBf (SEQ ID NO:25); B1 DAHBd (SEQ ID NO:26); B2 SAHBd (SEQ ID NO:27); B3 SAHBd (SEQ ID NO:28); B1 SAHBg (SEQ ID NO:29); B1 SAHBh (SEQ ID NO:30).

A further data set has as its system MEF cells. Put plainly: Lactate dehydrogenase (LDH) release assay, non-specific cell lysis. It counts as cell-based. An excerpt:
FIG. 5|Results of studies assessing non-specific cell-lysis by internally cross-linked peptides. Lactate dehydrogenase release assays (LDH) identified membrane-disruptive peptides 3 (SEQ ID NO:9) and 7 (SEQ ID NO:7); tested in MEF cells. Peptides 7, 10, 3, and 11-20 are SEQ ID NOs: 7, 8, 9, and 10-19 respectively.
Additional studies examined the non-specific cell lysis activity of peptide 3 (SEQ ID NO:9) (M1 SAHBd) and certain sequence variants of peptide 3 (SEQ ID NO:9) (M1 SAHBd).

In data set [9] the target is T1, Mcl-1. Put plainly: receptor | Mcl-1. The note with it: read-out: receptor | Mcl-1.
Target sequence in this assay (Q07820 whole entry, looked up): as the sequence (Q07820 whole entry) above
For data set [10], the target named is T4, Bcl-xL. Kind of data set: receptor | Bcl-xL.
Target sequence in this assay (Q07817 whole entry, looked up): as the sequence (Q07817 whole entry, species assumed) above
Data set [11] concerns the target Bcl-w (Homo sapiens, UniProt Q92843). Kind of data set: receptor | Bcl-w.
The target of data set [12] is Bfl-1 (Homo sapiens, UniProt Q16548). Kind of data set: receptor | Bfl-1.
Data set [13] has as its target T3, Bcl-2. Put plainly: receptor | Bcl-2.
Target sequence in this assay (P10415 whole entry, looked up): as the sequence (P10415 whole entry, species assumed) above
Data set [14] concerns the target T5, Bfl-1 (Homo sapiens, UniProt Q16548).
T5 sequence (Q16548 1-175): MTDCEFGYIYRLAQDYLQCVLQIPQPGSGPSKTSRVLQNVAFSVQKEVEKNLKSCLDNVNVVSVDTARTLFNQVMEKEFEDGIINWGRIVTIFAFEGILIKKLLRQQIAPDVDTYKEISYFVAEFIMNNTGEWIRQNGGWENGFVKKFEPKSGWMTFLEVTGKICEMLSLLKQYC
Kind of data set: Fluorescence anisotropy direct binding of N-terminal fluorescein peptides.

Data set [15] deals with T2, Bcl-w. Described as above.
The next data set relates to Pfeiffer cells. How it is done:
as §1, §2

The target in data set [16] is T3, Bcl-2. Put plainly: Fluorescence anisotropy direct binding of N-terminal fluorescein peptides.
Target sequence in this assay (P10415 whole entry): as the sequence (P10415 whole entry, species assumed) above
The target of data set [17] is T4, Bcl-xL. The data set is described as above.
Target sequence in this assay (Q07817 whole entry): as the sequence (Q07817 whole entry, species assumed) above
[18] abbreviates: parent: Bim for Bim_A2eT, Bim_A2eT for its point mutants, A12/B3 for MS1/MS2.

One may read the EC50 as the concentration that produces a half-maximal response. Low values mean an effect from little substance, high ones a need for much substance. For `CC[C@H](C)[C@H](NC(=O)[C@H](CCCCN)NC(=O)[C@H](CCCNC(=N)N)NC(=O)[C@H](CC(C)C)NC(=O)[C@H](CCC(N)=O)NC(=O)[C@H](C)NC(=O)[C@H](C)NC(=O)[C@H](Cc1ccccc1)NC(=O)[C@H](CCC(=O)O)NC(=O)[C@@H]1CCCN1C(=O)[C@@H]1CCCN1C(=O)[C@H](CC(C)C)NC(=O)[C@H](CCC(=O)O)NC(=O)[C@H](C)NC(C)=O)C(=O)NCC(=O)N[C@@H](CC(=O)O)C(=O)N[C@@H](CCCCN)C(=O)N[C@H](C(=O)N[C@@H](Cc1ccc(O)cc1)C(=O)N[C@@H](CS)C(N)=O)C(C)C` [NoxaA], the “binding to Mcl-1 in competition assay (in words)” value at Mcl-1 [1] was “very weak”. Also, the “no binding up to (Bcl-w)” value at Bcl-w [2] is on record as above 2500 nM. In addition, the EC50 was above 100 µM in the data set with Bcl-2/Myc 2924 cells, above 100 µM in data set [3], above 100 µM with MDA-MB-231 cells and 20 µM with Mcl-1/Myc 2640 cells. Besides, the “no binding up to (Bcl-2)” value on Bcl-2 [4] is reported as above 2500 nM. In the data set with Bfl-1 [5], the “no binding up to (Bfl-1)” value was above 2500 nM. Also, the “no binding up to (Bcl-xL)” value on Bcl-xL [6] was above 2500 nM.

Take “RPEIWMGQGLRRLGDEINAYYAR [A12, Bim-BH3 variant clone from yeast surface display library]”: the “binding preference among KSBcl-2 and five human Bcl-2 family proteins” value with Mcl-1 [7] is “bound to KSBci-2 and Mcl-1 in preference to Bcl-2, Bfl-1, Bcl-w, and to a lesser extent Bcl-xL”.

The IC50 is the midpoint of a concentration-inhibition curve. “IWFAQEIDRIGDEVNAYYARR (See specification as filed for detailed description of substitutions and preferred embodiments) [B1, native, non-stapled B1 peptide]” showed a concentration for half-maximal inhibition (IC50) in the data set with Mcl-1 [8] of 90 nM.

Consider `CCCC[C@H](NC(=O)[C@H](Cc1c[nH]c2ccccc12)NC(=O)[C@@H](NC(C)=O)[C@@H](C)CC)C(=O)N[C@H](C(=O)N[C@@H](CCC(N)=O)C(=O)NCC(=O)N[C@@H](CC(C)C)C(=O)N[C@@H](CCCNC(=N)N)C(=O)N[C@@]1(C)CCCC=CCCC[C@@](C)(C(=O)N[C@H](C(=O)N[C@@H](CC(N)=O)C(=O)N[C@@H](C)C(=O)N[C@@H](Cc2ccc(O)cc2)C(=O)N[C@@H](Cc2ccc(O)cc2)C(=O)N[C@@H](C)C(=O)N[C@@H](CCCNC(=N)N)C(=O)N[C@@H](CCCNC(=N)N)C(N)=O)[C@@H](C)CC)NC(=O)[C@H](CC(=O)O)NC(=O)CNC(=O)[C@H](CC(C)C)NC1=O)[C@@H](C)O` [peptide 7, IWNleTQGLRXLGDXINAYYARR] (Ac-IW[Nle]TQGLR[S5]LGD[S5]INAYYARR-NH2; staple 9-13; N-terminus assumed), for which the “LDH release, membrane disruption (in words)” value in the data set with MEF cells is recorded as “membrane-disruptive”.

Consider `CC[C@H](C)[C@H](NC(=O)[C@H](CCCNC(=N)N)NC(=O)[C@H](CCCNC(=N)N)NC(=O)[C@H](CC(C)C)NC(=O)CNC(=O)[C@H](CCC(N)=O)NC(=O)[C@@H](NC(=O)[C@@H](NC(=O)[C@H](Cc1c[nH]c2ccccc12)NC(=O)[C@@H](NC(=O)[C@H](CCC(=O)O)NC(=O)[C@@H]1CCCN1C(=O)[C@@H](N)CCCNC(=N)N)[C@@H](C)CC)[C@@H](C)CC)[C@@H](C)O)C(=O)NCC(=O)N[C@@H](CC(=O)O)C(=O)N[C@@H](CCC(=O)O)C(=O)N[C@@H](Cc1ccccc1)C(=O)N[C@@H](CC(N)=O)C(=O)N[C@@H](C)C(=O)N[C@@H](Cc1ccc(O)cc1)C(=O)N[C@@H](Cc1ccc(O)cc1)C(=O)N[C@@H](C)C(=O)N[C@@H](CCCNC(=N)N)C(N)=O` [Bim_A2eT_E2gG], for which the Kd on Mcl-1 [9] turned out to be 1.6 ± 0.57 nM; at Bcl-xL [10], 37 ± 7 nM; at Bcl-w [11], 94 ± 36 nM; at Bfl-1 [12], 250 ± 63 nM; at Bcl-2 [13] it was 150 ± 27 nM.

Turning to `CC[C@H](C)[C@H](NC(=O)[C@H](CCC(=O)O)NC(=O)[C@H](CC(=O)O)NC(=O)CNC(=O)[C@H](CC(C)C)NC(=O)[C@H](CCCNC(=N)N)NC(=O)[C@H](CCC(N)=O)NC(=O)[C@H](CC(C)C)NC(=O)[C@H](CO)NC(=O)[C@H](CCC(N)=O)NC(=O)[C@@H](NC(=O)[C@H](CC(C)C)NC(=O)[C@H](Cc1c[nH]c2ccccc12)NC(=O)[C@@H](NC(=O)[C@H](CCC(=O)O)NC(=O)[C@@H]1CCCN1C(=O)[C@H](CCCNC(=N)N)NC(C)=O)[C@@H](C)CC)[C@@H](C)O)C(=O)N[C@@H](CC(N)=O)C(=O)N[C@@H](C)C(=O)N[C@@H](Cc1ccc(O)cc1)C(=O)N[C@@H](Cc1ccc(O)cc1)C(=O)N[C@@H](C)C(=O)N[C@@H](CCCNC(=N)N)C(N)=O` [MS2], the “binding affinity to Bfl-1 (in words)” value at Bfl-1 [14] is given as “micromolar affinity”. In addition, on Bfl-1 [14] (setting [18]), the “reduction in Bfl-1 binding relative to the peptide without the mutation” value is around 100 fold. The “binding affinity to Bcl-w (in words)” value on Bcl-w [15] is “hundred-nanomolar range”. The “reduction in Bcl-w binding relative to the peptide without the mutation” value at Bcl-w [15] (setting [18]) is recorded as around 10 fold. Further, the EC50 was above 100 µM with Pfeiffer cells, above 100 µM with Bcl-2/Myc 2924 cells, above 100 µM in the data set with MDA-MB-231 cells and 0.7 µM in the data set on Mcl-1/Myc 2640 cells. Moreover, at Bcl-2 [16], the “binding affinity to Bcl-2 (in words)” value is recorded as “micromolar affinity”. Also, the “reduction in Bcl-2 binding relative to the peptide without the mutation” value on Bcl-2 [16] (setting [18]) is reported as around 100 fold. Also, on Bcl-xL [17], the “binding affinity to Bcl-xL (in words)” value was “micromolar affinity”. Further, the “reduction in Bcl-xL binding relative to the peptide without the mutation” value at Bcl-xL [17] (setting [18]) is reported as around 100 fold.

On to “RPEIWLGQSLQRLGDEINAYYAR [B3, Bim-BH3 variant clone from yeast surface display library]”, for which the “binding preference among KSBcl-2 and five human Bcl-2 family proteins” value with Mcl-1 [7] is “bound to KSBci-2 and Mcl-1 in preference to Bcl-2, Bfl-1, Bcl-w, and to a lesser extent Bcl-xL”.
